Measurements: patent publication US20160082015A1, “METHODS, COMPOSITIONS AND KITS FOR PROMOTING MOTOR NEURON SURVIVAL AND TREATING AND DIAGNOSING NEURODEGENERATIVE DISORDERS” (PRESIDENT AND FELLOWS OF HARVARD COLLEGE, priority 2013, published 2016)

Legend:
[1] = tested on: endogenous mouse SOD1 protein; assay: SOD1 protein levels by Western blotting; assay type: cell-based; conditions: HB9::GFP or SOD1^G93A/HB9::GFP cultures
Method: Since the additional death undergone by the SOD1^G93A/HB9::GFP MNs seems likely to relate to their expression of high levels of SOD1^G93A protein, one possibility is that kenpaullone could act in part by reducing those levels. Kenpaullone was added to cultures on day 4, and the levels of mutant SOD1^G93A protein were analyzed by Western blotting on day 21 (FIGS. 5A and 5B). […] The endogenous mouse SOD1 protein was not affected in either HB9::GFP or SOD1^G93A/HB9::GFP cultures (data not shown). In addition, the inventors discovered that kenpaullone had no effect on the levels of wild-type human SOD1 in cultures produced from an ESC line that overexpresses a wild-type human SOD1 transgene (wtSOD1/Hb9::GFP) (FIGS. SA mad SB). […] However, when the inventors used single cell confocal imaging to examine SOD1^G93A levels specifically in GFP^+ cells, it was clear that the SOD1^G93A levels in MNs were reduced, both in the presence and absence of trophic factors (FIG. 5C).

SOD1^G93A protein = assay: SOD1 protein levels by Western blotting and single cell imaging; assay type: cell-based, human
Method: In FIG. 5A cultures grown for 21 days in the indicated conditions were analyzed for levels of human SOD1 protein. The antibody used was specific for human SOD1, as is seen by the lack of staining on wild-type mouse MNs (HB9::GFP). When analyzed on day 21, levels of mutant SOD1^G93A protein, but not wt SOD1 protein, were decreased when cells were treated with kenpaullone in the absence of trophic factors. When analyzed on day 21, SOD1^G93A protein, but not wt SOD1 protein, was decreased when cultures were treated with kenpaullone in the presence of trophic factors as well (FIG. 5B). […] By this analysis, again on day 21, the average amount of SOD1 per MN was decreased by kenpaullone treatment in both +TF and −TF conditions. Scale bar represents 50 μm (FIG. 5C). Data are presented as mean±SEM. * p<0.05, *** p<0.001 (Student's t test, two-tailed).
Immunostaining was carried out using standard protocols (Makhortova et al., 2011). […]
Since the additional death undergone by the SOD1^G93A/HB9::GFP MNs seems likely to relate to their expression of high levels of SOD1^G93A protein, one possibility is that kenpaullone could act in part by reducing those levels. Kenpaullone was added to cultures on day 4, and the levels of mutant SOD1^G93A protein were analyzed by Western blotting on day 21 (FIGS. 5A and 5B). […]

O=C1Cc2c([nH]c3ccc(Br)cc23)-c2ccccc2N1 [Kenpaullone]
endogenous mouse SOD1 protein [1]: not affected | levels of SOD1^G93A protein (SOD1^G93A protein; added day 4, Western blotting day 21, with and without trophic factors): sharp decrease | mutant protein levels, untreated versus treated cultures (SOD1^G93A protein; until sometime after 15 days of treatment): no differences
